Assays:
Assay type in all cases: biochemical
TEC = target: T1, TEC (Homo sapiens, UniProt P42680); test: Inhibition of a panel of kinases, in vitro HotSpot kinase assay: TEC; settings: D-compounds panel data; 1 μM ATP
T1 sequence (P42680 1-631): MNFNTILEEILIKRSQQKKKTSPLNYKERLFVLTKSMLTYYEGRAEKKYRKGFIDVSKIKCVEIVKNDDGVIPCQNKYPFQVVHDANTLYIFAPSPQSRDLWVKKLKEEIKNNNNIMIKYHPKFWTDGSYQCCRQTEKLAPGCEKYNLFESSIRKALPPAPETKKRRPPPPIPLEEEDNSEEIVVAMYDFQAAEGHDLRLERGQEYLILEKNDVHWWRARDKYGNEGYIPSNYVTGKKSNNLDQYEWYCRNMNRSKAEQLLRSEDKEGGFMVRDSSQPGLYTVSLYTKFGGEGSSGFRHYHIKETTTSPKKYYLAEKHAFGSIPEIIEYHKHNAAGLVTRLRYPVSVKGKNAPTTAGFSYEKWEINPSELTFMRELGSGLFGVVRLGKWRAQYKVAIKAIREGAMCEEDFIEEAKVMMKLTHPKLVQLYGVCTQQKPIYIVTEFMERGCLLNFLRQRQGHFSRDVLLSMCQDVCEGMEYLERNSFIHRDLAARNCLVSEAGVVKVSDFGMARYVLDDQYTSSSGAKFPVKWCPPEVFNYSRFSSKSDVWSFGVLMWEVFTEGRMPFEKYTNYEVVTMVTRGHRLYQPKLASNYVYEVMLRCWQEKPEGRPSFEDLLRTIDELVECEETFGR
Experimental: (§1) The degree of inhibition of a panel of kinases is determined using the in vitro HotSpot kinase assay (purified enzymes, ^33P-ATP, an appropriate substrate and 1 μM ATP).

ITK = target: T2, ITK (Homo sapiens, UniProt Q08881); test: Inhibition of a panel of kinases, in vitro HotSpot kinase assay: ITK; settings: D-compounds panel data; 1 μM ATP
T2 sequence (Q08881 1-620): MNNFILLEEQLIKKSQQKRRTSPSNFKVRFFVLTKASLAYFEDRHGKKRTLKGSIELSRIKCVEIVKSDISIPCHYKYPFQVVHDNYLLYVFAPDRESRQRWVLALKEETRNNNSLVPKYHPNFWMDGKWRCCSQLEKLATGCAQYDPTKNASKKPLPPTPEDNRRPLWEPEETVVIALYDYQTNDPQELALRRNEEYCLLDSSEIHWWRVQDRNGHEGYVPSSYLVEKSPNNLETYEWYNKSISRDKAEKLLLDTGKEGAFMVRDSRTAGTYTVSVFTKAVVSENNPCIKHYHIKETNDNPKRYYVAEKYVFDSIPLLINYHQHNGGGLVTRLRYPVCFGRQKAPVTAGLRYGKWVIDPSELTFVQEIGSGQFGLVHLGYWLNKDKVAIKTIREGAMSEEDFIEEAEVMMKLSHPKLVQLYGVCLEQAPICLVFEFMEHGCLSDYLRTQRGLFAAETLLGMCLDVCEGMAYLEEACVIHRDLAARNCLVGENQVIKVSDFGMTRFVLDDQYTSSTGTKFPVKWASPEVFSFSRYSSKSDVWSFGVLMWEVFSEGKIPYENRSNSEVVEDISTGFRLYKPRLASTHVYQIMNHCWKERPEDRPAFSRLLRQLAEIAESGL
Experimental: as §1

EGFR = EGFR (Homo sapiens, UniProt P00533); test: Inhibition of a panel of kinases, in vitro HotSpot kinase assay: EGFR; settings: D-compounds panel data; 1 μM ATP
EGFR, sequence (P00533 25-1210): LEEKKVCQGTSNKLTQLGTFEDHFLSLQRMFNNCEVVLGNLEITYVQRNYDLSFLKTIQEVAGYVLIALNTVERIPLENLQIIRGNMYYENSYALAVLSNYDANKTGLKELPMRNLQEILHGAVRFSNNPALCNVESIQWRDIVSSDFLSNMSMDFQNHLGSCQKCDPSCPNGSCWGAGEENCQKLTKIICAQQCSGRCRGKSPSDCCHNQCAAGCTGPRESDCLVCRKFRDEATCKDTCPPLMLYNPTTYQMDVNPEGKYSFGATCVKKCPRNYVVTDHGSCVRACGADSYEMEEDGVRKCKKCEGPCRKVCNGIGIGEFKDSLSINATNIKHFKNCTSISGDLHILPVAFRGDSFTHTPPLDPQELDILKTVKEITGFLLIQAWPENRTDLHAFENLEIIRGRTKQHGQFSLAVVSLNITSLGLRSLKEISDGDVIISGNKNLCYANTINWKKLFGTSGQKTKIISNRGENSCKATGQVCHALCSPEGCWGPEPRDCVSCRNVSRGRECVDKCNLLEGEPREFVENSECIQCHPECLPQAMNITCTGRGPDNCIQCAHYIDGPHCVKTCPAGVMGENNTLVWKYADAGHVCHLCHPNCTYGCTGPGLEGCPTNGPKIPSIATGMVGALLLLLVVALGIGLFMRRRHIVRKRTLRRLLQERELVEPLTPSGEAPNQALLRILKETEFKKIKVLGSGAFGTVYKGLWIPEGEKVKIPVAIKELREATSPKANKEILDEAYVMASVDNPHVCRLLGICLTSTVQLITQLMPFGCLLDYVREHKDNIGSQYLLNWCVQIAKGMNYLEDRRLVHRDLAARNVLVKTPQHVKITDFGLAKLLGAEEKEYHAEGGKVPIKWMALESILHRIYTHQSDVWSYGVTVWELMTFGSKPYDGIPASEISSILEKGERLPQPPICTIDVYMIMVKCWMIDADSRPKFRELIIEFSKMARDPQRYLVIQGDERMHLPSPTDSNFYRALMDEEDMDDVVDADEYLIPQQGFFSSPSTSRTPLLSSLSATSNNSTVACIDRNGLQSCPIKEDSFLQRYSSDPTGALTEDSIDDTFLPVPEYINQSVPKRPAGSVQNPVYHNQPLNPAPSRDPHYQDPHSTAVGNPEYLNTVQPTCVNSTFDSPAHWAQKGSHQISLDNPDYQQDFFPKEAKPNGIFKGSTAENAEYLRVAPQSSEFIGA
Experimental: as §1

LCK = LCK (Homo sapiens, UniProt P06239); test: Inhibition of a panel of kinases, in vitro HotSpot kinase assay: LCK; settings: D-compounds panel data; 1 μM ATP; read-out: IC50 LCK
LCK, sequence (P06239 whole entry): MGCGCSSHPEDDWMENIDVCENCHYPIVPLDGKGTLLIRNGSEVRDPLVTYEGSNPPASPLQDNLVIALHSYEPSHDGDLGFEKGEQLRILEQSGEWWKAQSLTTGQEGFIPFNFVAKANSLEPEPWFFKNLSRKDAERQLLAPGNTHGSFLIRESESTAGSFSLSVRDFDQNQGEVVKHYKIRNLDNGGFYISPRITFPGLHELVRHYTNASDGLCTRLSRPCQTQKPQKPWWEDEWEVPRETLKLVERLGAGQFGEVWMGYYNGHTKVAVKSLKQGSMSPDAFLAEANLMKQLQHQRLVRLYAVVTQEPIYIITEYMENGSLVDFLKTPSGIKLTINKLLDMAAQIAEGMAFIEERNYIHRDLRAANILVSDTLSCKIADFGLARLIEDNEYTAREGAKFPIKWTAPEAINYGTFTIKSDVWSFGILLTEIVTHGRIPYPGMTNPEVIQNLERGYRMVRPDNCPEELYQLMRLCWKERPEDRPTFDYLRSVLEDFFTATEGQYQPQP

BTK-WT = target: T3, BTK-WT (Homo sapiens, UniProt Q06187); test: Btk in vitro inhibitory activity (one of Method A TR-FRET, Method B electrophoretic mobility shift, Method C radiometric filter binding); settings: D-compounds panel data; read-out: IC50 BTK-WT
T3 construct: purified from insect cells as a full-length construct containing an N-terminal 6X-His tag; His6 (N); made in house; host or cells: insect cells (baculovirus Sf21 in Method B)
T3 sequence (Q06187 whole entry): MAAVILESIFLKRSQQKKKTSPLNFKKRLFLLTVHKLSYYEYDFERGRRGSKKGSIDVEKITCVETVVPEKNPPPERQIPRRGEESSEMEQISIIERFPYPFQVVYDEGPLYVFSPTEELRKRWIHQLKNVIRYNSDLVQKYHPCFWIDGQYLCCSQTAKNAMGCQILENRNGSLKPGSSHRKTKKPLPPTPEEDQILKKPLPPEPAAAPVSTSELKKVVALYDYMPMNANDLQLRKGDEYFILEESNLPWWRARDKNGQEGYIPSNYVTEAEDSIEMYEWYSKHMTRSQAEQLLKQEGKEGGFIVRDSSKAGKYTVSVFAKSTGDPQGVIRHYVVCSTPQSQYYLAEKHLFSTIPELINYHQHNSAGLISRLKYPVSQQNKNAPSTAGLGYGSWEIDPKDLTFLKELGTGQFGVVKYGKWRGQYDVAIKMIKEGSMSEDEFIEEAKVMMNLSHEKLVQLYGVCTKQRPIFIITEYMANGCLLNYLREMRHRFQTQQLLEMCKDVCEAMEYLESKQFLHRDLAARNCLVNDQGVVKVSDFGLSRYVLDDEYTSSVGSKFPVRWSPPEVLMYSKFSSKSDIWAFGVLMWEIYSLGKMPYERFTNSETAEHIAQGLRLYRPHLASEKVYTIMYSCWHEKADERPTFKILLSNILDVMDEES

IC50 (TEC) | IC50 (ITK) | IC50 (EGFR) | IC50 (LCK) | IC50 (BTK-WT) | SMILES
> 10 µM | > 10 µM | > 10 µM | > 10 µM | 1 to 10 µM | Cc1csc(Nc2nc(N3CCC[C@@H](NC(=O)c4ccc(C5CC5)cc4F)[C@H]3C)cnc2C(N)=O)n1 [Example D-63, 5-[(2R,3R)-3-(4-cyclopropyl-2-fluorobenzamido)-2-methylpiperidin-1-yl]-3-[(4-methyl-1,3-thiazol-2-yl)amino]pyrazine-2-carboxamide]
0.1 to 1 µM | 1 to 10 µM | 0.1 to 1 µM | 0.1 to 1 µM | 0.01 to 0.1 µM | Cc1cc(Nc2nc(N3CCC[C@@H](NC(=O)N(C)C)[C@H]3CO)cnc2C(N)=O)sn1 [Example D-67, 5-[(2S,3R)-3-[(dimethylcarbamoyl)amino]-2-(hydroxymethyl)piperidin-1-yl]-3-[(3-methyl-1,2-thiazol-5-yl)amino]pyrazine-2-carboxamide]
> 10 µM | > 10 µM | > 10 µM | > 10 µM | 1 to 10 µM | Cc1cc(Nc2nc(N3CCC[C@H](NC(=O)N(C)C)[C@@H]3CO)cnc2C(N)=O)sn1 [Example D-68, 5-[(2R,3S)-3-[(dimethylcarbamoyl)amino]-2-(hydroxymethyl)piperidin-1-yl]-3-[(3-methyl-1,2-thiazol-5-yl)amino]pyrazine-2-carboxamide]
1 to 10 µM | 1 to 10 µM | 0.1 to 1 µM | 0.01 to 0.1 µM | 0.01 to 0.1 µM | CN1CCN(C(=O)c2ccc(Nc3nc(N[C@H]4CC[C@H](NC(=O)N(C)C)CC4)cnc3C(N)=O)cc2)CC1 [Example D-69, 3-{[4-(4-methylpiperazine-1-carbonyl)phenyl]amino}-5-{[(1 r,4r)-4-[(dimethylcarbamoyl)amino]cyclohexyl]amino}pyrazine-2-carboxamide]
1 to 10 µM | 1 to 10 µM | 1 to 10 µM | 0.01 to 0.1 µM | 0.01 to 0.1 µM | CN1CCN(C(=O)c2ccc(Nc3nc(N[C@H]4CC[C@@H](NC(=O)N(C)C)CC4)cnc3C(N)=O)cc2)CC1 [Example D-72, 3-{[4-(4-methylpiperazine-1-carbonyl)phenyl]amino}-5-{[(1s,4s)-4-[(dimethylcarbamoyl)amino]cyclohexyl]amino}pyrazine-2-carboxamide]
0.01 to 0.1 µM | 0.1 to 1 µM | 1 to 10 µM | 1 to 10 µM | ≤ 0.01 µM | C[C@@H]1[C@H](NC(=O)c2ccc(C3CC3)cc2F)CCCN1c1cnc(C(N)=O)c(Nc2ccc(N3CCOCC3)cc2)n1 [Example D-73, 5-[(2R,3R)-3-(4-cyclopropyl-2-fluorobenzamido)-2-methylpiperidin-1-yl]-3-{[4-(morpholin-4-yl)phenyl]amino}pyrazine-2-carboxamide]
1 to 10 µM | > 10 µM | 0.1 to 1 µM | 0.1 to 1 µM | 0.1 to 1 µM | Cc1cc(Nc2nc(N3C[C@H](NC(=O)N(C)C)CC[C@@H]3C)cnc2C(N)=O)sn1 [Example D-74, 5-[(2S,5R)-5-[(dimethylcarbamoyl)amino]-2-methylpiperidin-1-yl]-3-[(3-methyl-1,2-thiazol-5-yl)amino]pyrazine-2-carboxamide]
0.1 to 1 µM | 1 to 10 µM | 0.1 to 1 µM | 0.1 to 1 µM | 0.01 to 0.1 µM | Cc1cc(Nc2nc(N3C[C@@H](NC(=O)N(C)C)CC[C@H]3C)cnc2C(N)=O)sn1 [Example D-75, 5-[(2R,5S)-5-[(dimethylcarbamoyl)amino]-2-methylpiperidin-1-yl]-3-[(3-methyl-1,2-thiazol-5-yl)amino]pyrazine-2-carboxamide]
1 to 10 µM | > 10 µM | 1 to 10 µM | > 10 µM | 0.1 to 1 µM | Cc1cc(Nc2nc(N3C[C@@H](NC(=O)N(C)C)CC[C@@H]3C)cnc2C(N)=O)sn1 [Example D-76, 5-[(2S,5S)-5-[(dimethylcarbamoyl)amino]-2-methylpiperidin-1-yl]-3-[(3-methyl-1,2-thiazol-5-yl)amino]pyrazine-2-carboxamide]
1 to 10 µM | > 10 µM | 1 to 10 µM | 1 to 10 µM | 0.1 to 1 µM | Cc1cc(Nc2nc(N3C[C@H](NC(=O)N(C)C)CC[C@H]3C)cnc2C(N)=O)sn1 [Example D-77, 5-[(2R,5R)-5-[(dimethylcarbamoyl)amino]-2-methylpiperidin-1-yl]-3-[(3-methyl-1,2-thiazol-5-yl)amino]pyrazine-2-carboxamide]
1 to 10 µM | 1 to 10 µM | 0.1 to 1 µM | 0.1 to 1 µM | 0.1 to 1 µM | Cc1cc(Nc2nc(N3C[C@@H](NC(=O)c4ccc(C5CC5)cc4F)CC[C@@H]3C)cnc2C(N)=O)sn1 [Example D-78, 5-[(2S,5S)-5-(4-cyclopropyl-2-fluorobenzamido)-2-methylpiperidin-1-yl]-3-[(3-methyl-1,2-thiazol-5-yl)amino]pyrazine-2-carboxamide]
> 10 µM | > 10 µM | 1 to 10 µM | 1 to 10 µM | 0.1 to 1 µM | Cc1cc(Nc2nc(N3C[C@H](NC(=O)c4ccc(C5CC5)cc4F)CC[C@H]3C)cnc2C(N)=O)sn1 [Example D-79, 5-[(2R,5R)-5-(4-cyclopropyl-2-fluorobenzamido)-2-methylpiperidin-1-yl]-3-[(3-methyl-1,2-thiazol-5-yl)amino]pyrazine-2-carboxamide]
1 to 10 µM | > 10 µM | 0.1 to 1 µM | 0.1 to 1 µM | 0.01 to 0.1 µM | Cc1cc(Nc2nc(N3C[C@@H](NC(=O)c4ccc(C5CC5)cc4F)CC[C@H]3C)cnc2C(N)=O)sn1 [Example D-80, 5-[(2R,5S)-5-(4-cyclopropyl-2-fluorobenzamido)-2-methylpiperidin-1-yl]-3-[(3-methyl-1,2-thiazol-5-yl)amino]pyrazine-2-carboxamide]
0.01 to 0.1 µM | 0.1 to 1 µM | 0.1 to 1 µM | 0.01 to 0.1 µM | ≤ 0.01 µM | C[C@@H]1[C@H](NC(=O)c2ccc(C3CC3)cc2)CCCN1c1cnc(C(N)=O)c(Nc2ccc(N3CCN(C)CC3)cc2)n1 [Example D-81]

SMILES | IC50 (TEC) | IC50 (ITK) | IC50 (EGFR) | IC50 (LCK) | IC50 (BTK-WT)
C[C@@H]1[C@H](NC(=O)c2ccc(C3CC3)cc2F)CCCN1c1cnc(C(N)=O)c(Nc2ccc(C3(C)CCN(C4CCCC4)CC3)cc2)n1 [Example D-66, 3-{[4-(1-cyclopentyl-4-methylpiperidin-4-yl)phenyl]amino}-5-[(2R,3R)-3-(4-cyclopropyl-2-fluorobenzamido)-2-methylpiperidin-1-yl]pyrazine-2-carboxamide] | ≤ 0.01 µM | 0.01 to 0.1 µM | 0.01 to 0.1 µM | < 0.01 µM | ≤ 0.01 µM
CN1CCN(C(=O)c2ccc(Nc3nc(N[C@H]4CC[C@H](NC(=O)c5ccc(C6CC6)cc5F)CC4)cnc3C(N)=O)cc2)CC1 [Example D-70, 3-{[4-(4-methylpiperazine-1-carbonyl)phenyl]amino}-5-{[(1 r,4r)-4-(4-cyclopropyl-2-fluorobenzamido)cyclohexyl]amino}pyrazine-2-carboxamide] | 0.1 to 1 µM | 0.1 to 1 µM | 0.1 to 1 µM | 0.1 to 1 µM | 0.01 to 0.1 µM
CN1CCN(C(=O)c2ccc(Nc3nc(N[C@H]4CC[C@@H](NC(=O)c5ccc(C6CC6)cc5F)CC4)cnc3C(N)=O)cc2)CC1 [Example D-71, 3-{[4-(4-methylpiperazine-1-carbonyl)phenyl]amino}-5-{[(1 s,4s)-4-(4-cyclopropyl-2-fluorobenzamido)cyclohexyl]amino}pyrazine-2-carboxamide] | 0.1 to 1 µM | 1 to 10 µM | 0.1 to 1 µM | 0.01 to 0.1 µM | 0.01 to 0.1 µM

From patent US20210070748A1, “INHIBITORS OF BRUTONS TYROSINE KINASE” (Pharmacyclics LLC, priority 2015, published 2021)
